Converted amounts (≈) assume the structure as drawn.
Details: for aqueous solubility: pH 6.8

SMILES | MDR1-MDCK efflux ratio | intrinsic clearance, human liver microsomes [mL/min/kg] | intrinsic clearance, rat liver microsomes [mL/min/kg] | aqueous solubility [µg/mL] | fraction unbound, human plasma | fraction unbound, rat plasma
Cc1oc2ncnc(NCc3cc(F)cc4c3OCOC4)c2c1C | 0.553 | 127 | 2040 | – | – | –
O=C(c1ccccc1F)N1CCC[C@@H]1Cn1nnn(-c2cccs2)c1=O | 0.769 | 62.4 | 1240 | 33 (≈ 88.4 µM) | – | –
N#Cc1ccccc1CN1C(=O)CCC1=O | – | ≤ 4.74 | 20.4 | – | – | –
O=C(CCc1ccco1)Nc1ccccc1OC(F)F | 0.533 | 116 | 831 | 44.6 (≈ 159 µM) | – | –
C[C@@H](NC(=O)N1CCC2(CCN(C)CC2)C1)c1ccc(F)cc1 | 1.75 | ≤ 4.74 | ≤ 10.7 | – | – | –
COc1ccc2ccccc2c1CNC(=O)c1cnc(C2CC2)nc1 | 0.645 | 33.7 | 442 | 5.12 (≈ 15.4 µM) | – | –
O=C(Nc1nccs1)c1c2c(nc3ccccc13)CCC2 | 1.44 | 13.2 | 477 | 6.78 (≈ 23 µM) | – | –
COc1cccc(CN2CCc3nc(-c4cnc(C)cn4)nc(O)c3C2)c1 | – | ≤ 4.74 | 38.2 | – | – | –
O=C(CN1CCCC(c2cncc(-c3cccc(Cl)c3)n2)C1)N1CCCC1 (centres undefined) | 1.73 | 86.6 | 1080 | 65.8 (≈ 171 µM) | – | –
Cc1ccc(OCC(=O)Nc2ccncc2)c(C)c1 | – | 52.5 | 508 | 47.1 (≈ 184 µM) | – | –
Cc1nc(N2CCNCC2)c2cnn(C)c2n1 | 15.3 | ≤ 4.74 | 15.1 | – | – | –
CC(C)Cc1ccccc1CNCc1ccc2[nH]cnc2c1 | 7.25 | 55.8 | 765 | – | – | –
NCCC(=O)Nc1ccc2[nH]c(=O)[nH]c2c1 | – | – | – | 143 (≈ 648 µM) | – | –
O=C1NC2(CCC2)C(=O)N1Cc1ccon1 | – | ≤ 4.74 | ≤ 10.7 | – | – | –
Cc1ccc(C)c(OCC(=O)N2CCC(C(=O)Nc3ccccc3)CC2)c1 | 2.86 | 302 | 1390 | 3.37 (≈ 9.2 µM) | – | –
O=C(O)c1ccccc1-n1cnc(CN2CCCC2)c1 | 2.49 | ≤ 4.74 | ≤ 10.7 | 38.8 (≈ 143 µM) | – | –
Cc1cc(NC(=O)c2c(F)cccc2Cl)no1 | – | ≤ 4.74 | 26 | – | – | –
Cc1ccc(CNC(=O)c2cccs2)cn1 | 0.842 | ≤ 4.74 | ≤ 10.7 | 52.3 (≈ 225 µM) | – | –
O=C(CN1CCCN(c2ccc(C(F)(F)F)cn2)CC1)Nc1ccccc1Cl | 1.03 | 229 | 1650 | 11 (≈ 26.6 µM) | – | –
Cc1ccccc1-c1cc(N)n(Cc2ccccc2)n1 | – | 33.2 | 302 | – | – | –

SMILES | MDR1-MDCK efflux ratio | intrinsic clearance, human liver microsomes [mL/min/kg] | intrinsic clearance, rat liver microsomes [mL/min/kg] | aqueous solubility [µg/mL] | fraction unbound, human plasma | fraction unbound, rat plasma
CNc1nc(C)nc(N[C@H]2CCC[C@@H](C(=O)NCc3ccc(C#N)cc3C(F)(F)F)C2)n1 | 108 | 18.4 | 91.3 | – | – | –
Clc1ccc2[nH]c(COc3ccccc3)nc2c1 | – | 27.9 | 338 | 29.5 (≈ 114 µM) | – | –
CCN(c1cc(-c2ccc(CN3CCOCC3)cc2)cc(C(=O)NCc2c(C)cc(C)nc2O)c1C)C1CCOCC1 | 60.3 | 131 | 525 | 49.2 (≈ 85.9 µM) | – | –
Cc1ccc(F)cc1C(=O)N1CCc2c(nc(-c3ccccn3)nc2N(C)C)C1 | – | 8.74 | 61.6 | 25.7 (≈ 65.8 µM) | – | –
COc1ccc(OC)c(N/C=C2\C(=O)Oc3ccccc3C2=O)c1 | – | – | – | 0.7 (≈ 2.15 µM) | – | –
Cc1ccc(OCC2(O)CCN(CC3(O)CCN(c4ccccc4C)CC3)CC2)cc1 | 0.655 | 400 | – | – | 0.00911 | –
c1cc2c(N3CCNCC3)nc(-c3ccnc(NC4CCCCC4)c3)cc2cn1 | 26.5 | 68.7 | 260 | 39.9 (≈ 103 µM) | – | –
COc1ccc(-c2nnc(-c3ccccc3)o2)cc1OC | 0.227 | 49.4 | 50.8 | 4.34 (≈ 15.4 µM) | – | –
Cc1cc(N2CCCC2)nc(C2CCCN(C)C2)n1 (centres undefined) | – | 9.21 | 331 | – | 1 | 0.727
Cc1nc(C)c2c(C)c(C(=O)N(C)CCN3CCCC3)sc2n1 | 12.6 | ≤ 4.74 | 77.8 | 60.9 (≈ 183 µM) | – | –
Cc1ccc(CN(C)c2ncnc3c2cnn3C)o1 | 0.657 | 19.2 | 223 | 40.9 (≈ 159 µM) | – | –
Cc1cc2ncn(CC(=O)NC(C)(C)C)c2cc1C | 5.53 | ≤ 4.74 | 70.1 | 39.1 (≈ 151 µM) | – | –
CN(C(=O)OC(C)(C)C)c1ccc2ccccc2n1 | 0.472 | – | – | 0.28 (≈ 1.08 µM) | – | –
CC1(C)OCCn2c1nc1c(N3CCOCC3)nc(-c3cnc(N)nc3)nc12 | 1.31 | 6.14 | 26 | 6.44 (≈ 16.8 µM) | – | –
CCN(C(=O)N1CCC(OC2CCOCC2)CC1)C(C)C | 0.763 | 21.6 | 155 | 56.1 (≈ 188 µM) | – | –
C[C@@H](CO)Nc1nc(C(F)(F)F)nc2[nH]cnc12 | 6.72 | ≤ 4.74 | ≤ 10.7 | 40 (≈ 153 µM) | – | –
Cc1cccc2c1Oc1nc(-c3ccccc3)[nH]c(=S)c1C2 | – | – | – | 0.33 (≈ 1.08 µM) | – | –
CC(C)C(=O)N1CCC(Nc2ncnc3ccsc23)CC1 | 6.55 | ≤ 4.74 | 19.2 | 48 (≈ 158 µM) | – | –
CC(C)c1noc2nc(C3CC3)cc(C(=O)N3CCN(C)C(=O)C3)c12 | 40.6 | 7.73 | 20.8 | 36.1 (≈ 106 µM) | – | –
CC(=O)NCc1cc2n(n1)CCN(C1Cc3ccccc3C1)C2 | 1.12 | ≤ 4.74 | ≤ 10.7 | – | – | –

SMILES | MDR1-MDCK efflux ratio | intrinsic clearance, human liver microsomes [mL/min/kg] | intrinsic clearance, rat liver microsomes [mL/min/kg] | aqueous solubility [µg/mL] | fraction unbound, human plasma | fraction unbound, rat plasma
CC1=C(Br)CN(CCc2nc3ccccc3c(=O)[nH]2)CC1 | 0.856 | 133 | 2050 | – | – | –
CC(C)NC(=O)N1CC[C@H](NC2=Nc3cc(F)ccc3N(CC(F)F)c3ccc(Cl)cc32)C1 | 23.6 | 180 | 783 | 28 (≈ 58.3 µM) | – | –
Cc1ccccc1CSc1ccc(-c2ccccn2)nn1 | 0.589 | 95.6 | 537 | 1.75 (≈ 5.96 µM) | – | –
COc1ncc(C(=O)NCc2cnn3cccnc23)cn1 | 2.54 | ≤ 4.74 | ≤ 10.7 | – | – | –
NCC1CCCC1NC(=O)c1cc(N2CCNC2=O)ccc1F (centres undefined) | 1.92 | ≤ 4.74 | – | – | 0.75 | –
Cn1ccc(CN2CCC(c3cnccn3)CC2)n1 | 0.983 | ≤ 4.74 | 26.8 | 50 (≈ 194 µM) | – | –
Cc1ncsc1C(=O)N1CCCCC1c1nc(N(C)C)ncc1-c1cccc(Cl)c1 (centres undefined) | 1.28 | 236 | 1200 | 18.2 (≈ 41.2 µM) | 0.00826 | 0.0105
O=C(Cc1cccc(I)c1)N1CC(CO)C1 | 1.59 | ≤ 4.74 | ≤ 10.7 | 42.1 (≈ 127 µM) | – | –
COc1cc(C)nc(N2CCN(c3ccc4ccccc4n3)CC2)n1 | – | 36.2 | 643 | – | – | –
CC1(C)COCCN1Cc1cnn(-c2ccccc2)n1 | 0.545 | 10.7 | 1070 | 14.7 (≈ 54.1 µM) | – | –
Cc1cc(C(=O)Nc2ccc(C)c(C)c2)n(-c2ccccc2)n1 | 0.392 | 97 | 2050 | 3.93 (≈ 12.9 µM) | – | –
CC(=O)Nc1ccc(C(=O)N2CCCCC2c2nc(N)ncc2-c2cccc(Cl)c2)cc1 (centres undefined) | 98 | 53.3 | 651 | 57.5 (≈ 128 µM) | 0.0331 | 0.0384
COCC(=O)Nc1ccc(C)c(NC(=O)[C@H](OC)c2ccccc2)c1 | 2.8 | 85.2 | 44.9 | – | – | –
CC(C)CCN1CCC(CNS(C)(=O)=O)CC1 | 2.43 | ≤ 4.74 | ≤ 10.7 | – | – | –
N#Cc1cccc(NC(=O)C2CCC2)c1 | – | – | – | 33.8 (≈ 169 µM) | – | –
CN(c1ccccc1N)S(C)(=O)=O | – | 10.2 | 24.1 | – | – | –
CN1[C@@H]2CC[C@H]1C[C@H](OC(c1ccccc1)c1ccccc1)C2 | 7.37 | 9.86 | 1090 | 52.1 (≈ 169 µM) | 0.128 | 0.152
O=C1NCN(c2ccccc2)C12CCN(CCCOc1ccc(F)cc1)CC2 | – | 74.3 | 548 | 50.9 (≈ 133 µM) | – | –

Source: the Biogen ADME set (Fang et al. 2023)
